{"source": "patent US20240398836A1", "about": "“EPOXY STEROIDS” (priority 2021, published 2024)", "type_in_all_cases": "cell-based", "key": {"[1]": {"system": "human primary leukocytes", "test": "Selectivity: apoptosis (DNA fragmentation, flow cytometry) in leukocytes", "method": "(§1) WIL 071 acts selectively in malignant cells that are proliferating.\n(§2) The DNA fragmentation was measured by flow cytometry, see FIG. 7. The experiments were performed in triplicate. The error bars show the standard deviations of the measured values of three independent experiments."}, "[2]": {"system": "prednisolone-resistant leukemia cells", "test": "Overcoming of prednisolone resistance", "conditions": "72 h", "method": "The cells were incubated in 6-well plates with 1.0·10^5 cells/mL in two milliliters of medium with the respective steroid derivative in different concentrations. The included solvent control (DMSO) served as a control, which was subtracted from all the other measured values, in order not to take into account the spontaneous apoptosis of the cells that takes place independently of the concentration of active ingredient. After 72 h, a modified cell cycle analysis was performed, in order to quantify the proportion of apoptotic cells by flow cytometry. For each concentration of the steroid, the respective mean values f standard deviations, n=3 (*: p<0.05 vs. DMSO, t test) were determined. Using the curve of the dose-effect relationship (steroid concentration−apoptosis induction) formed from these measured values, the steroid concentration at which apoptosis was triggered in 50% of the tested leukemia cells was read.\nPrednisolone resistance is said to be overcome if the induction of apoptosis in prednisolone-resistant leukemia cells is as high as it is in normal leukemia cells."}, "[3]": {"system": "BiBo cells", "test": "Apoptosis induction in polycytostatics-resistant BiBo cells vs BJAB", "conditions": "vincristine-resistant BJAB, Bcl-2 overexpression", "method": "BiBo cells are lymphoma cells (BJAB cells) that have been made resistent against vincristine, and have a Bcl-2 overexpression as a resistence mechanism. They have co-resistences for the following cytostatics: • vincristine, vinblastine, vindesine, vinorelbin, taxol • cytarabin • daunorubicin.\nThe experiments were performed in triplicate. The error bars show the standard deviations of the measured values of three independent experiments. The steroid WIL 071 overcomes steroid resistence in lymphoma cells (BiBo cells)."}, "[4]": {"system": "primary glioblastoma cells of a patient", "test": "Apoptosis in primary human glioblastoma cells", "conditions": "grade 4", "method": "In contrast to conventional glucocorticoids, the steroid WIL 071 can induce apoptosis also in primary human brain tumor cells.\nThe DNA fragmentation was measured by flow cytometry, see FIG. 10. The experiments were performed in triplicate. The error bars show the standard deviations of the measured values of three independent experiments."}, "[5]": {"system": "Nalm-6 cells", "test": "Inhibition of proliferation in leukemia cells (Nalm-6)", "conditions": "Nalm-6, 24 h, concentration-dependent", "method": "In leukemia cells (Nalm-6), cell proliferation is inhibited. After 24 h, 1×10^5 cells will have proliferated to almost threefold (2.97×10^5 cells), while cell proliferation is inhibited up to 100% in a concentration-dependent way by treatment with the steroid WIL 071, see FIG. 1. The experiments were performed in triplicate. The error bars show the standard deviations of the measured values of three independent experiments."}, "[6]": {"system": "glioblastoma cells (DBTRG05MG cells)", "test": "Apoptosis in brain tumor cells", "method": "In contrast to conventional glucocorticoids, the steroid WIL 071 can induce apoptosis also in brain tumor cells.\nThe DNA fragmentation was measured by flow cytometry, see FIG. 9. The experiments were performed in triplicate. The error bars show the standard deviations of the measured values of three independent experiments."}, "[7]": {"system": "neuroblastoma cells (SKNAS cells), LiOn cells", "test": "Apoptosis in cytostatics-resistant solid tumor cells", "conditions": "SKNAS cells and cisplatin-resistant LiOn cells (caspase-8 underexpression)", "method": "In contrast to conventional glucocorticoids, the steroid WIL 071 can induce apoptosis also in solid tumor cells.\nThe DNA fragmentation was measured by flow cytometry), see FIG. 8. The experiments were performed in triplicate. The error bars show the standard deviations of the measured values of three independent experiments."}, "[8]": {"system": "NaKu cells", "test": "Apoptosis induction in steroid- and polycytostatics-resistant NaKu cells vs Nalm-6", "conditions": "steroid- and polycytostatics-resistant leukemia cells (ALL)", "method": "The experiments were performed in triplicate. The error bars show the standard deviations of the measured values of three independent experiments.\nThe steroid WIL 071 overcomes steroid resistence in leukemia cells (NaKu cells). Further, the steroid-resistent leukemia cells (NaKu cells) have co-resistencies for the following cytostatics: • prednisolone, methylprednisolone, dexamethasone, • doxorubicin, daunorubicin, idarubicin, epirubicin • cytarabine, cladribine • etoposide • cyclophosphamide, ifosfamide • vindesine • cisplatin, carboplatin, oxaliplatin"}, "[9]": {"system": "Nalm-6 cells", "test": "Selectivity: apoptosis (DNA fragmentation, flow cytometry) in leukemia cells", "method": "as §1, §2"}}, "data": [{"smiles": "CC(C)CCC[C@@H](C)[C@H]1CC[C@H]2[C@@H]3[C@H]4OC[C@@]5(CC[C@H](O)C[C@]5(O)C4=O)[C@H]3CC[C@]12C", "note": "[WIL-071, 3β,5α-dihydroxy-7β,19-epoxy-cholestan-6-one]", "values": [{"measurement": "apoptosis induction (DNA fragmentation)", "setting": "[1]", "value": "apoptosis is not induced"}, {"measurement": "EC50", "setting": "[2]", "value": 16, "unit": "µM"}, {"measurement": "apoptosis induction in resistant BiBo cells compared with BJAB", "setting": "[3]", "value": "induces as much apoptosis as in the non-resistent lymphoma cells"}, {"measurement": "apoptosis induction (DNA fragmentation)", "setting": "[4]", "value": "significantly induces apoptosis"}, {"measurement": "inhibition of cell proliferation", "setting": "[5]", "value": "up to 100%"}, {"measurement": "apoptosis induction (DNA fragmentation)", "setting": "[6]", "value": "significantly induces apoptosis"}, {"measurement": "apoptosis induction / overcoming of cytostatics resistance", "setting": "[7]", "value": "Resistances towards cytostatics are overcome"}, {"measurement": "apoptosis induction in resistant NaKu cells compared with Nalm-6", "setting": "[8]", "value": "induces as much apoptosis as in the non-resistent leukemia cells (Nalm-6)"}, {"measurement": "apoptosis induction (DNA fragmentation)", "setting": "[9]", "value": "apoptosis is induced in a concentration-dependent way"}]}]}
